{
  "source": "patent US20100130359A1",
  "about": "(priority 2007, published 2010)",
  "key": {"Phytophthora infestans": {"tested_on": "Phytophthora infestans", "type": "in vivo, Phytophthora infestans on tomato plants", "conditions": "250 ppm active compound, sprayed one day before infection, assessed after 6 days; untreated plants 80% infected"}, "Septoria tritici": {"tested_on": "Septoria tritici", "experiment": "Protective activity against Septoria leaf blotch of wheat caused by Septoria tritici", "type": "in vivo, Septoria tritici on wheat seedlings", "conditions": "250 ppm active compound, sprayed six days after inoculation, assessed after 14 days; untreated plants 90% infected", "description": "The active compounds were prepared as a stock solution comprising 25 mg of active compound which was made up to 10 ml using a mixture of acetone and/or DMSO and the emulsifier Uniperol® EL (wetting agent having emulsifying and dispersing action based on ethoxylated alkylphenols) in a volume ratio of solvent/emulsifier of 99/1. The mixture was then made up to 100 ml with water. This stock solution was diluted with the solvent/emulsifier/water mixture described to the concentration of active compounds stated below. Alternatively, the active compounds were used as a commercial finished formulation and diluted with water to the stated active compound concentration.\nLeaves of potted wheat seedlings were inoculated with a spore suspension of the leaf blotch disease Septoria tritici. The test plants were then placed in a greenhouse at temperatures between 20 and 22° C. and a relative atmospheric humidity of close to 100% and then at temperatures between 16 and 18° C. and an atmospheric humidity of about 70% for 4 days. Six days after the inoculation, the plants were sprayed to runoff point with an aqueous active compound solution having the concentration stated below. After the spray coating had dried on, the plants were returned. After 14 days, the extent of the development of the disease was determined visually in % infection of the entire leaf area."}},
  "data": [
    {"smiles": "Cc1nnc(Cl)c(-c2c(F)cc(OCCCN(C)C)cc2F)c1-c1ccc(Cl)cc1", "note": "[Compound I-1, (3-{-4-[3-chloro-5-(4-chlorophenyl)-6-methylpyridazin-4-yl]-3,5-difluorophenoxy}propyl)dimethylamine]", "values": [
      {"measurement": "infection of treated tomato plants (late blight), determined visually", "setting": "Phytophthora infestans", "result": "no infection"},
      {"measurement": "infection of the entire leaf area of treated wheat plants, determined visually", "setting": "Septoria tritici", "result": 10, "unit": "%"}
    ]}
  ]
}
